This test addresses Microphthalmia-associated transcription factor (Homo sapiens) (UniProt O75030). Briefly: MITF inhibitors by FRET titration, dose response, biochemical, high throughput (AID 1259375).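 Further: FRET between CFP-tagged and YFP-tagged MITF protein partners.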 As to conditions: FRET biochemical assay, MITF inhibition.

We go through 85 molecules from PubChem BioAssay AID1259375 (The Scripps Research Institute Molecular Screening Center, 2018).

Activity calls are given as the source filed them. How the calls were made is not given here. Some results are limits rather than exact numbers.

Sequence of Microphthalmia-associated transcription factor (Homo sapiens) (O75030 whole entry, looked up): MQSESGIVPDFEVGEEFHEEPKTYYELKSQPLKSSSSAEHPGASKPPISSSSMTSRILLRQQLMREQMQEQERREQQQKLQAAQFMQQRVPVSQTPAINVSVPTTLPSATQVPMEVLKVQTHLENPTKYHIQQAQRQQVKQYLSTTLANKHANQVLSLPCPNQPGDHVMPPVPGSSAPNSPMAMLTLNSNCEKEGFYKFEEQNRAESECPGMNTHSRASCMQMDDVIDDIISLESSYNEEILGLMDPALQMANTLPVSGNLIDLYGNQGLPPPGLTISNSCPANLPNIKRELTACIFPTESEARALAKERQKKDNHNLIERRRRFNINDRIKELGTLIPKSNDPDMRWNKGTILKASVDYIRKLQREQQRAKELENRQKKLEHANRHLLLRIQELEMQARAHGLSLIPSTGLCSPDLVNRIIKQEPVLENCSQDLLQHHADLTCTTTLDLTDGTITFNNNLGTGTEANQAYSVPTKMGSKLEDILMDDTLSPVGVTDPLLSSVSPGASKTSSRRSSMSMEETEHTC

As for `O=C(O)c1cc(S(=O)(=O)Nc2ccncc2)ccc1O`, the IC50 (in general, the midpoint of a concentration-inhibition curve) is > 7.05 µM (inactive).

As to `Cc1ccc(C)n1C(CC(=O)O)c1ccsc1` (stereo not given), the IC50 was > 6.76 µM (inactive).

With `COc1ccc(C)cc1NC(=O)C(NCC(O)c1ccccc1)c1ccccc1` (stereo not given), the IC50 is > 7.02 µM (inactive). As to `CC(C)[C@H]1NC(=O)[C@H]2CN(C(=O)NC3CCCCC3)CCN2C1=O`, the IC50 is > 6.48 µM (inactive). The value for `O=C(c1ccncc1)N1C2C=CC(C2)C1(C(F)(F)F)C(F)(F)F` (stereo not given) was > 6.48 µM (inactive); that for `CCOC(=O)C1C2NC(=S)N(c3ccc(CC)cc3)C1(C)Oc1c(OCC)cccc12` (stereo not given) was > 5.53 µM (inactive); that for `O=C(Nc1ccc(-c2ccncc2)c(C(F)(F)F)c1)C1COc2ccccc2O1` (stereo not given) was > 6.48 µM (inactive). `C/C=C\C1=C(C(=O)O)N2C(=O)C(NC(=O)C(N)c3ccc(O)cc3)C2SC1` (stereo not given): the IC50 is > 6.48 µM (inactive).

Turning to `COc1cccc(CN2CCC(CNc3ccc(-c4ccncc4)cc3)C2)c1` (stereo not given), the IC50 is > 6.48 µM (inactive). In the case of `O=C(Cn1cc(C(=O)c2ccco2)c2ccccc21)NCc1cccnc1`, the IC50 was > 6.48 µM (inactive). With `COc1ccc2c(c1)CC(C(=O)Nc1ccc(-c3cn[nH]c3)cc1OCC#N)CO2` (stereo not given), the IC50 was > 6.48 µM (inactive). For `Nc1cc2c(S(=O)(=O)O)cc(S(=O)(=O)O)cc2cc1S(=O)(=O)O`, the IC50 was > 6.48 µM (inactive). With `CCC[C@@H]1NC(=O)[C@H]2CN(C(=O)NCc3ccccc3)CCN2C1=O`, the IC50 was > 6.48 µM (inactive). With `Clc1ccc2c(c1)CC(c1nc(Nc3cncnc3)c3ccccc3n1)CO2` (stereo not given), the IC50 was > 6.48 µM (inactive). Next, `CC(C)C[C@@H]1NC(=O)[C@H]2CN(C(=O)NCc3ccccc3)CCN2C1=O`: > 6.48 µM (inactive); `COc1ccc(C[C@@H]2NC(=O)[C@H]3CN(C(=O)NCc4ccccc4)CCN3C2=O)cc1`: > 6.48 µM (inactive); `O=C(O)c1cc(-n2cccc2)ccc1Cl`: > 6.48 µM (inactive). Next, `Cc1n[nH]c(=O)nc1NNc1ccc(C(=O)O)cc1`: > 6.48 µM (inactive).

Consider `CC(C)N(C(=O)COC(=O)c1cc(-c2ccco2)nc2ccccc12)C(C)C`, for which the IC50 was > 6.82 µM (inactive). The value for `CC1CCC(N2CCN(Cc3ccco3)CC2)CC1` (stereo not given) was > 6.25 µM (inactive). As for `O=C(NNC(=O)c1cc(-c2ccco2)nc2ccccc12)NC1CCCCC1`, the IC50 was > 6.48 µM (inactive). Take `NCC1OC(=O)C(Oc2ccccc2)=C1Br` (stereo not given): the IC50 is > 6.48 µM (inactive). Next, `N#CC(C#N)=Cc1cccn1-c1ccc(C(=O)O)cc1`: > 6.48 µM (inactive); `COc1c(O)cc(O)cc1O`: > 6.48 µM (inactive); `CN(C)CCn1nnnc1SCC1=C(C(=O)O)N2C(=O)[C@@H](NC(=O)Cc3csc(N)n3)[C@H]2SC1`: > 6.48 µM (inactive). The value for `Cc1c(NC(=O)C(C)OC(=O)c2cc3c(s2)CCC3)c(=O)n(-c2ccccc2)n1C` (stereo not given) was > 6.7 µM (inactive). For the molecule `CCC12c3ccccc3C(c3ccccc31)C1C(=O)NC(=O)C12` (stereo not given), the IC50 is > 6.48 µM (inactive). Next, `COc1nccnc1NS(=O)(=O)c1ccc(NC(=O)c2ccc([N+](=O)[O-])c(C)c2)cc1`: > 6.48 µM (inactive); `CCOC(=O)Cc1[nH]nc2c1C1(C(=O)N(CC)c3ccccc31)C(C#N)=C(N)O2` (stereo not given): > 6.48 µM (inactive); `CCOC(=O)c1cc(N2C(=O)C3C4C=CC(C4)C3C2=O)ccc1Cl` (stereo not given): > 6.48 µM (inactive).

Regarding `Cc1nc(C)n(-c2ccc(Nc3cc(-n4cc(N(c5cccnc5)c5cccnc5)cn4)ccn3)cc2)n1`, the IC50 is > 6.48 µM (inactive). Next, `O=C(CCc1ccco1)Nc1ccc(-c2cn3c4c(nnc3n2)CCCC4)cc1`: > 6.48 µM (inactive); `c1ccc(COc2ccc(OCCCCn3ccnc3)cc2)cc1`: > 6.48 µM (inactive). The value for `O=c1cc(/C=C/c2ccc(O)cc2)nc2nn[nH]n12` was > 6.48 µM (inactive); that for `O=C1CCCC2=C1C(c1ccc([N+](=O)[O-])o1)C1=C(CCCC1=O)O2` was > 7.09 µM (inactive). The value for `Cc1ccc(N2C(=O)c3ccccc3NC2c2cccc([N+](=O)[O-])c2)cc1` (stereo not given) was > 5.15 µM (inactive). With `CCCCOc1ccc(C(=O)N/C(=C/c2ccco2)C(=O)O)cc1`, the IC50 entry was “inactive”.

Regarding `O=C(COc1ccccc1C(=O)OC1CCCC1=O)Nc1cccc(C(F)(F)F)c1` (stereo not given), the IC50 was > 6.77 µM (inactive). Next, `CCOC(=O)N1CCC(NC(=O)CCc2nc(C3=CCN(C)CC3)no2)CC1`: > 6.48 µM (inactive). Turning to `CN1CCN(C(=O)c2ccc(-c3nc(Nc4ccccc4)c4ncn(C5CCCCC5)c4n3)cc2)CC1`, the IC50 was > 7.63 µM (inactive). Next, `O=c1c(O)c(-c2ccc(O)cc2O)oc2cc(O)cc(O)c12`: > 6.48 µM (inactive); `O=C(O)c1ccc(CNC(=O)c2cocc2C(=O)O)o1`: > 7.32 µM (inactive); `CC(C)C[C@H]1NC(=O)[C@H]2CN(C(=O)NC3CCCCC3)CCN2C1=O`: > 6.48 µM (inactive). Next, `Cc1[nH][nH]c(=O)c1C(c1ccc([N+](=O)[O-])o1)c1c(C)[nH][nH]c1=O`: > 6.48 µM (inactive). For `O=C(O)C1CC=CCC1C(=O)Nc1nncs1` (stereo not given), the IC50 was > 6.48 µM (inactive). Take `O=C(O)CCC(NCc1ccco1)C(=O)O` (stereo not given): the IC50 is > 6.85 µM (inactive). Next, `CCOC(=O)N1CCN(C(=S)Nc2ccc(OCC)cc2)CC1`: > 6.48 µM (inactive); `Cc1cc(CSC(=N)N)c(O)c(C)n1`: > 6.48 µM (inactive). The value for `O=C(NCCc1ccc(O)cc1)c1ccnc(-c2cccs2)c1` was > 6.77 µM (inactive); that for `O=C(O)c1ccccc1-c1ccc(/C=C/[N+](=O)[O-])o1` was > 6.48 µM (inactive). The value for `COc1ccc(C[C@@H]2NC(=O)[C@H]3CN(C(=O)NC4CCCCC4)CCN3C2=O)cc1` was > 6.48 µM (inactive); that for `O=C(/C=C/c1ccco1)Nc1nnc(-c2ccco2)s1` was > 6.48 µM (inactive); that for `COC(=O)CN(CCN(CC(=O)O)CC(=O)OC)CC(=O)O` was > 5.37 µM (inactive).

In the case of `O=C(/C=C/c1ccco1)NC(=S)Nc1cc(C(=O)O)ccc1Cl`, the 50% inhibitory concentration (IC50) was 3.33 µM.

As to `C[C@@H](OCc1ccccc1)[C@@H]1NC(=O)[C@H]2CN(C(=O)NC3CCCCC3)CCN2C1=O`, the IC50 was > 6.48 µM (inactive).

Regarding `O=C1N[C@@H](Cc2ccc(O)cc2)C(=O)N2CCN(C(=O)NCc3ccccc3)C[C@H]12`, the IC50 was > 6.48 µM (inactive). `Cc1oc(C(=O)O)cc1CSCCSCc1cc(C(=O)O)oc1C`: the IC50 was > 6.48 µM (inactive). Next, `CCN(CC)c1ccc(C(c2c(C)[nH][nH]c2=O)c2c(C)[nH][nH]c2=O)cc1`: 2.94 µM; `N#C/C(=C/c1ccco1)c1cccc(F)c1`: > 6.48 µM (inactive); `C/C(=N\NC(=O)CC1=NNC(=O)C1)c1ccco1`: > 6.48 µM (inactive). Next, `CCc1ccc(CN2CCN(Cc3cc(OC)c(O)c(OC)c3)CC2)cc1`: > 5.79 µM (inactive); `COCCNC(=O)COC(=O)c1cc(-c2ccco2)nc2ccccc12`: > 6.59 µM (inactive). Consider `NC(=O)c1ccc(N=Cc2cc3c(cc2[N+](=O)[O-])OCO3)cc1`, for which the IC50 is 4.37 µM. Next, `CC(=C/C(=O)O)/C=C/c1ccoc1`: > 9.75 µM (inactive); `O=C1N[C@H](CO)C(=O)N2CCN(C(=O)NCc3ccccc3)C[C@H]12`: > 6.48 µM (inactive); `O=C1N[C@H](Cc2ccccc2)C(=O)N2CCN(C(=O)NC3CCCCC3)C[C@H]12`: > 6.48 µM (inactive).

As for `O=C(/C=C/c1ccco1)Nc1c[nH]c(=O)[nH]c1=O`, the IC50 is > 6.48 µM (inactive). Next, `CN1C(=O)[C@H]2CN(C(=O)NC3CCCCC3)CCN2C(=O)[C@@H]1CO`: > 6.48 µM (inactive). The value for `O=C(O)/C=C/c1ccc([N+](=O)[O-])o1` was > 10.6 µM (inactive). The value for `CCn1ccnc1CN1CCN(Cc2cccc(OC)c2)C(CCO)C1` (stereo not given) was > 6.48 µM (inactive).

Consider `CC(=O)Nc1ccc(N2C(=O)c3ccccc3C2(O)Cc2ccccc2)cc1` (stereo not given), for which the IC50 was > 6.48 µM (inactive). Next, `CC[C@H](C)[C@@H]1NC(=O)[C@H]2CN(C(=O)NCc3ccccc3)CCN2C1=O`: > 6.48 µM (inactive); `O=C(NCc1cccnc1)c1cccc(-c2cccs2)c1`: > 6.64 µM (inactive); `CCCCCCCCCCCCCCCC(=O)OC[C@H](O)[C@H]1OC(=O)C(=O)C1O` (stereo not given in full): > 6.48 µM (inactive). The value for `O=C(O)CCCNC(=O)/C=C/c1ccco1` was > 6.48 µM (inactive). The value for `COC(=O)CSc1nnc(-c2ccco2)n1Cc1ccco1` was > 6.48 µM (inactive); that for `O=C(NCC(O)C(=O)N1CCOCC1)c1cccc(Nc2ccc3[nH]ncc3c2)n1` (stereo not given) was > 6.48 µM (inactive). Consider `O=C(c1ccc([N+](=O)[O-])cc1)N1CCN(Cc2cccc3ccccc23)CC1`, for which the IC50 was > 5.48 µM (inactive). The value for `O=C(/C=C/c1ccco1)NC(=S)Nc1ccc(Cl)c(C(=O)O)c1` was > 6.48 µM (inactive). Next, `C[C@H]1NC(=O)[C@H]2CN(C(=O)NC3CCCCC3)CCN2C1=O`: > 6.48 µM (inactive); `O=C(Nc1ccc(N2CCOCC2)cc1)c1cccc(Nc2ccncn2)n1`: > 7.56 µM (inactive); `NC1(C(Cl)(Cl)Cl)Oc2ccccc2O1`: > 6.48 µM (inactive). Next, `O=C1N[C@H](Cc2ccccc2)C(=O)N2CCN(C(=O)NCc3ccccc3)C[C@H]12`: > 6.48 µM (inactive); `CN(C)C1C(=O)C(C(N)=O)=C(O)C2(O)C(=O)C3=C(O)c4c(O)cccc4C(C)(O)C3CC12` (stereo not given): > 6.48 µM (inactive).

As to `O=C(NC1CCCCC1)N1CCN2C(=O)[C@@H]3CSCN3C(=O)[C@H]2C1`, the IC50 was > 6.48 µM (inactive).
